Source: ChEMBL document CHEMBL1129506, “2,4-Diarylpyrrolidine-3-carboxylic acids--potent ETA selective endothelin receptor antagonists. 1. Discovery of A-127722” (J Med Chem, 1996)

Tests used:
[1] = target: T1, Endothelin receptor type B (Sus scrofa, UniProt P35463); experiment: Inhibitory activity measured against Endothelin B receptor binding to porcine cerebellum; format: tissue-based
T1 sequence (P35463 whole entry): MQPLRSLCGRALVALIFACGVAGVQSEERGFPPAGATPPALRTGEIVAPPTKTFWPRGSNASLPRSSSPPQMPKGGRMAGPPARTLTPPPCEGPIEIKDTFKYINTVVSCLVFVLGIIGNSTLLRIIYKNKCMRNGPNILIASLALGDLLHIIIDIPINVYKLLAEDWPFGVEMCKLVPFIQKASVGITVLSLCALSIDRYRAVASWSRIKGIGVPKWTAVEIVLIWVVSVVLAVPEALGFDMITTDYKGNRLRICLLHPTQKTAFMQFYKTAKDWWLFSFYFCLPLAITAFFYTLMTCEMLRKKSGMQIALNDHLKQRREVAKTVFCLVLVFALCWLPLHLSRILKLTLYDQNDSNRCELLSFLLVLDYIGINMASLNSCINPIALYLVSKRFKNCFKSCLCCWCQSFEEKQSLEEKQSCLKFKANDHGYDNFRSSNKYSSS

Endothelin-1 receptor = target: T2, Endothelin-1 receptor (Rattus norvegicus, UniProt P26684); experiment: Inhibitory activity against the Endothelin A receptor of rat MMQ cells; format: cell-based
T2 sequence (P26684 whole entry): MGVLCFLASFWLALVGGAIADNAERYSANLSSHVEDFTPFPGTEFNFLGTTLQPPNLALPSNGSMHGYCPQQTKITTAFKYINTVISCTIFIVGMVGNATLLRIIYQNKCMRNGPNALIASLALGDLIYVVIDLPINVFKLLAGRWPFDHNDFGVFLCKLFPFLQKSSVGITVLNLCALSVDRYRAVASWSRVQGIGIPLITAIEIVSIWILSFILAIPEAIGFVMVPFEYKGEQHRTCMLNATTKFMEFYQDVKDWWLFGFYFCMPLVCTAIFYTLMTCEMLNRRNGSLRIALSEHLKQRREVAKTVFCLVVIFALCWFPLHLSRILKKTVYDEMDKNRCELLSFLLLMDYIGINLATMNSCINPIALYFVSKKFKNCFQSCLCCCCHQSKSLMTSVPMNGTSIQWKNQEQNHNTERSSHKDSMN

Endothelin receptor = target: T3, Endothelin receptor (Rattus norvegicus, UniProt P26684+P21451); experiment: Inhibition of phosphoinositol hydrolysis of MMQ cells.; format: functional, cell-based
T3 sequence (P26684 whole entry): T2 sequence (P26684 whole entry)
T3 sequence (P21451 whole entry): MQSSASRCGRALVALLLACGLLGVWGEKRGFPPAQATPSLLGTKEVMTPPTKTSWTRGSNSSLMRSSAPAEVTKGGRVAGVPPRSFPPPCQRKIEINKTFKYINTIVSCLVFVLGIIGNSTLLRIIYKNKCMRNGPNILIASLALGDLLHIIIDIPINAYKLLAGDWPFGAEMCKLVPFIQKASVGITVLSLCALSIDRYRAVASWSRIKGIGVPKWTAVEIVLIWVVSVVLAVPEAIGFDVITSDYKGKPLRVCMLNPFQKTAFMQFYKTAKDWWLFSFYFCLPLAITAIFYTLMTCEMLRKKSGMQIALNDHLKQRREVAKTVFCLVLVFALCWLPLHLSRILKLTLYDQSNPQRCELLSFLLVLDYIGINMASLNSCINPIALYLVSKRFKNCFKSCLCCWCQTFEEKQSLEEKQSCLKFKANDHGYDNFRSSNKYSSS

Structure (SMILES) | IC50 [1] | IC50 (Endothelin-1 receptor) | IC50 (Endothelin receptor)
COc1ccc([C@@H]2[C@@H](C(=O)O)[C@H](c3ccc4c(c3)OCO4)CN2CCc2ccccn2)cc1 | 2360 nM | 900 nM | 
CCCC#CCN1C[C@@H](c2ccc3c(c2)OCO3)[C@H](C(=O)O)[C@H]1c1ccc(OC)cc1 | 3590 nM | 765 nM | 
COc1ccc([C@@H]2[C@@H](C(=O)O)[C@H](c3ccc4c(c3)OCO4)CN2C(=O)Nc2ccccc2)cc1 | 3510 nM | 2430 nM | 
COc1ccc([C@@H]2[C@@H](C(=O)O)[C@H](c3ccc4c(c3)OCO4)CN2CC(=O)NCC(C)C)cc1 | 184 nM | 8.2 nM | 9.22 nM
COc1ccc([C@@H]2[C@@H](C(=O)O)[C@H](c3ccc4c(c3)OCO4)CN2CC(=O)N(CC(C)C)CC(C)C)cc1 | 1820 nM | 16.2 nM | 0.6 nM
CCCCCCN1C[C@@H](c2ccc3c(c2)OCO3)[C@H](C(=O)O)[C@H]1c1ccc(OC)cc1 | 23300 nM | 2870 nM | 
CCCCCCN(C)C(=O)CN1C[C@@H](c2ccc3c(c2)OCO3)[C@H](C(=O)O)[C@H]1c1ccc(OC)cc1 | 404 nM | 7.61 nM | 1 nM
CCCCNC(=O)N1C[C@@H](c2ccc3c(c2)OCO3)[C@H](C(=O)O)[C@H]1c1ccc(OC)cc1 | 11100 nM | 684 nM | 
CCCCN(CCCC)CCN1C[C@@H](c2ccc3c(c2)OCO3)[C@H](C(=O)O)[C@H]1c1ccc(OC)cc1 | 1590 nM | 794 nM | 
CCCC(CCC)C(=O)CN1C[C@@H](c2ccc3c(c2)OCO3)[C@H](C(=O)O)[C@H]1c1ccc(OC)cc1 | 283 nM | 85 nM | 
COc1ccc([C@@H]2[C@@H](C(=O)O)[C@H](c3ccc4c(c3)OCO4)CN2CC(=O)NC2CCCC2)cc1 | 307 nM | 16.2 nM | 23.8 nM
COc1ccc([C@@H]2[C@@H](C(=O)O)[C@H](c3ccc4c(c3)OCO4)CN2CCOCC(C)C)cc1 | 8380 nM | 437 nM | 
COc1ccc([C@@H]2[C@@H](C(=O)O)[C@H](c3ccc4c(c3)OCO4)CN2CC(=O)N(C)Cc2ccccc2)cc1 | 1680 nM | 769 nM | 
COc1ccc([C@@H]2[C@@H](C(=O)O)[C@H](c3ccc4c(c3)OCO4)CN2C(=O)c2ccco2)cc1 | 40300 nM | 5220 nM | 
COc1ccc([C@@H]2[C@@H](C(=O)O)[C@H](c3ccc4c(c3)OCO4)CN2CC(=O)N(CCC(C)C)CCC(C)C)cc1 | 41 nM | 0.43 nM | 
COc1ccc([C@@H]2[C@@H](C(=O)O)[C@H](c3ccc4c(c3)OCO4)CN2CC(=O)N(C)c2ccccc2)cc1 | 1180 nM | 50.2 nM | 
CCCOCCN1C[C@@H](c2ccc3c(c2)OCO3)[C@H](C(=O)O)[C@H]1c1ccc(OC)cc1 | 4970 nM | 108 nM | 
CCCCS(=O)(=O)N1C[C@@H](c2ccc3c(c2)OCO3)[C@H](C(=O)O)[C@H]1c1ccc(OC)cc1 | 6180 nM | 1240 nM | 
CC[S+]([O-])CCN1C[C@@H](c2ccc3c(c2)OCO3)[C@H](C(=O)O)[C@H]1c1ccc(OC)cc1 (stereo not given in full) | 834 nM | 44 nM | 
COc1ccc([C@@H]2[C@@H](C(=O)O)[C@H](c3ccc4c(c3)OCO4)CN2CC(N)=O)cc1 | 3270 nM |  | 
COc1ccc([C@@H]2[C@@H](C(=O)O)[C@H](c3ccc4c(c3)OCO4)CN2CC(=O)N2CCCCC2)cc1 | 3040 nM | 350 nM | 
COc1ccc(NC(=O)N2C[C@@H](c3ccc4c(c3)OCO4)[C@H](C(=O)O)[C@H]2c2ccc(OC)cc2)cc1 | 3790 nM | 781 nM | 
COc1ccc([C@@H]2[C@@H](C(=O)O)[C@H](c3ccc4c(c3)OCO4)CN2CCOc2ccccc2)cc1 | 3400 nM | 885 nM | 

Structure (SMILES) | IC50 [1] | IC50 (Endothelin-1 receptor) | IC50 (Endothelin receptor)
COc1ccc([C@@H]2[C@@H](C(=O)O)[C@H](c3ccc4c(c3)OCO4)CN2CC(=O)N(C)C2CCCCC2)cc1 | 806 nM | 23.8 nM | 2.06 nM
COc1ccc([C@@H]2[C@@H](C(=O)O)[C@H](c3ccc4c(c3)OCO4)CN2C(=O)N2CCOCC2)cc1 | 5020 nM | 1080 nM | 
CCCCOCCN1C[C@@H](c2ccc3c(c2)OCO3)[C@H](C(=O)O)[C@H]1c1ccc(OC)cc1 | 3830 nM | 220 nM | 
CCCS(=O)(=O)CCN1C[C@@H](c2ccc3c(c2)OCO3)[C@H](C(=O)O)[C@H]1c1ccc(OC)cc1 | 750 nM | 37 nM | 
CCCCN(CCCC)C(=O)N1C[C@@H](c2ccc3c(c2)OCO3)[C@H](C(=O)O)[C@H]1c1ccc(OC)cc1 | 1470 nM | 396 nM | 
COc1ccc([C@@H]2[C@@H](C(=O)O)[C@H](c3ccc4c(c3)OCO4)CN2Cc2ccc(F)cc2)cc1 | 7930 nM | 4320 nM | 
C#CCN(C)C(=O)CN1C[C@@H](c2ccc3c(c2)OCO3)[C@H](C(=O)O)[C@H]1c1ccc(OC)cc1 | 4000 nM | 106 nM | 
CCCCCN(C)C(=O)CN1C[C@@H](c2ccc3c(c2)OCO3)[C@H](C(=O)O)[C@H]1c1ccc(OC)cc1 | 624 nM | 5.78 nM | 5.64 nM
CCCCC(=O)CN1C[C@@H](c2ccc3c(c2)OCO3)[C@H](C(=O)O)[C@H]1c1ccc(OC)cc1 | 2430 nM | 163 nM | 
COc1ccc([C@@H]2[C@@H](C(=O)O)[C@H](c3ccc4c(c3)OCO4)CN2C(=O)COc2ccc(F)cc2)cc1 | 12700 nM |  | 
COc1ccc([C@@H]2[C@@H](C(=O)O)[C@H](c3ccc4c(c3)OCO4)CN2CC(=O)N(C)CC(C)C)cc1 | 1050 nM | 1.88 nM | 0.28 nM
CCCN(CCC)C(=O)CCN1C[C@@H](c2ccc3c(c2)OCO3)[C@H](C(=O)O)[C@H]1c1ccc(OC)cc1 | 4200 nM | 121 nM | 
COCCNC(=O)CN1C[C@@H](c2ccc3c(c2)OCO3)[C@H](C(=O)O)[C@H]1c1ccc(OC)cc1 | 3730 nM | 178 nM | 
COc1ccc([C@@H]2[C@@H](C(=O)O)[C@H](c3ccc4c(c3)OCO4)CN2C/C=C/CC(C)C)cc1 | 27300 nM | 1630 nM | 
COCCOCCN1C[C@@H](c2ccc3c(c2)OCO3)[C@H](C(=O)O)[C@H]1c1ccc(OC)cc1 | 3390 nM | 682 nM | 
CCOCCN1C[C@@H](c2ccc3c(c2)OCO3)[C@H](C(=O)O)[C@H]1c1ccc(OC)cc1 | 9010 nM | 520 nM | 
CCN(CC)C(=O)CN1C[C@@H](c2ccc3c(c2)OCO3)[C@H](C(=O)O)[C@H]1c1ccc(OC)cc1 | 5250 nM | 32.9 nM | 2.26 nM
CCCCN(CCCC)CC(=O)N1C[C@@H](c2ccc3c(c2)OCO3)[C@H](C(=O)O)[C@H]1c1ccc(OC)cc1 | 29400 nM | 6810 nM | 
CCCCN(C(=O)CN1C[C@@H](c2ccc3c(c2)OCO3)[C@H](C(=O)O)[C@H]1c1ccc(OC)cc1)c1ccccc1 | 306 nM | 0.81 nM | 
CCCCCN(CCCCC)C(=O)CN1C[C@@H](c2ccc3c(c2)OCO3)[C@H](C(=O)O)[C@H]1c1ccc(OC)cc1 | 313 nM | 0.56 nM | 
CCCCN(CCCC)C(=O)C(C)N1CC(c2ccc3c(c2)OCO3)C(C(=O)O)C1c1ccc(OC)cc1 (stereo not given) | 315 nM | 0.46 nM | 1.34 nM
COc1ccc([C@@H]2[C@@H](C(=O)O)[C@H](c3ccc4c(c3)OCO4)CN2CC(=O)N(C)CC(C)(C)C)cc1 | 1800 nM | 112 nM | 
CCCCN(CC)C(=O)CN1C[C@@H](c2ccc3c(c2)OCO3)[C@H](C(=O)O)[C@H]1c1ccc(OC)cc1 | 531 nM | 0.85 nM | 0.33 nM
